In PMC10766536 (The Journal of Antibiotics, 2023):
Where two headings read alike, the source gives them in different places.

How the values were obtained:
CYP 3A4 [1] = target: CYP 3A4 (Homo sapiens, UniProt P08684); conditions: read-out: CYP inhibition IC50, ND = Not Detected
CYP 1A2 = CYP 1A2 (Homo sapiens, UniProt P05177); conditions: read-out: CYP inhibition IC50; CYP 1A2, substrate Phenacetin; ND = Not Detected
[2] = target: T1, MDCK-MDR1: overexpression of Pgp (Homo sapiens, UniProt P08183)
[3] = Compound stability in CYP induction assay
[4] = rat, s9
[5] = mouse, s9
[6] = S9 microsome stability, CD-1 mouse; conditions: text statement for rodent (mouse and rat) S9
[7] = target: T1, MDCK-MDR1: overexpression of Pgp; assay: MDCK-MDR1 permeability and efflux
CYP 2D6 = CYP 2D6 (Homo sapiens, UniProt P10635); assay: CYP inhibition; conditions: read-out: CYP inhibition IC50; CYP 2D6, substrate Dextromethorphan; ND = Not Detected
[8] = tested on: Caco-2: endogenous transporters
CYP 3A4 [9] = tested on: CYP 3A4
CYP 2B6 = CYP 2B6 (Homo sapiens, UniProt P20813)
[10] = tested on: Caco-2: endogenous transporters; assay: Caco-2 permeability
[11] = tested on: Salmonella typhimurium AR-0031; assay: S. typhimurium broth killing (growth inhibition) assay; conditions: Salmonella typhimurium AR-0031, TSB, 24 h
Description: (§3) To test the potency of rifamycin analogs of the disclosure in vitro, a broth growth inhibition assay was developed.

[12] = tested on: S. aureus MRSA strain N315; assay: S. aureus IV advanced disseminated infection mouse model, kidney burden; type: in vivo, Balb/c mice
Description: (§1) S. aureus MSRA strain NRS384 or N315 (BEI Resources), where indicated, was grown overnight in TSB and sub-cultured to mid-logarithmic phase. […] From 1 to 3 days post-infection, indicated mice were injected subcutaneously with 110 mg/kg vancomycin twice daily where indicated. […] Mice were monitored for weight loss and body conditioning score throughout the infection. At 4 days post-infection, mice were euthanized, and the S. aureus kidney burden was quantified by tissue homogenization followed by enumeration of cfu through serial dilution in PBS and plating onto TSA plates. Data points represent the kidney burden from individual mice tested. Statistical analysis was conducted with GraphPad Prism 9, Version 9.4.1.

[13] = tested on: S. aureus MRSA strain NRS384; assay: as above; type: in vivo, Balb/c mice; conditions: 0.01–0.25 mg/kg sc single dose in combination with vancomycin, NRS384
Description: as §1

[14] = tested on: Salmonella typhimurium ATCC 14028; assay: S. typhimurium broth killing (growth inhibition) assay; conditions: Salmonella typhimurium ATCC 14028, TSB, 24 h
Description: as §3

CYP 2C19 = CYP 2C19 (Homo sapiens, UniProt P33261)
[15] = tested on: Salmonella typhimurium AR-0031; assay: S. typhimurium intracellular killing assay in THP-1 macrophages; type: cell-based; conditions: Salmonella typhimurium AR-0031 in THP-1 macrophages, top conc. 1e−4 M
Description: (§2) THP-1 monocytic cell line (American Type Culture Collection) was grown in media (RPMI + 10% FBS + 1% Penicillin/Streptomycin), then seeded at a density of 1e5 cells/well in a 96 well plate and differentiated into macrophages for 3 days prior to infection using 200 nM PMA. Overnight culture of S. aureus or S. typhimurium was grown in RPMI or TSB, respectively, washed twice with PBS and resuspended at 1e7 cfu/ml in PBS. THP-1 were washed with warm media (RMPI without FBS) to remove the Penicillin/Streptomycin and then infected with the bacterial suspension at a multiplicity of infection of 10:1 (S. aureus:macrophages) or 5:1 (S. typhimurium:macrophages). Plates were centrifuged at 300 × g for 5 min to synchronize adhesion of the bacteria to the macrophages, then incubated at 37 °C for 2 h for S. aureus infection or 1 h for S. typhimurium infection. Free-floating bacteria were removed by washing twice with warm media and the remaining extracellular bacteria were killed by addition of media containing gentamicin (50 ug/ml). After 1 h, media was aspirated and the indicated compound was added to the S. aureus-infected macrophages in a dilution series starting at 1e−6 M, with 1:5 dilutions for 6 points (1.0 × 10^−6 M, 2.0 × 10^−7 M, 4.0 × 10^−8 M, 8.0 × 10^−9 M, 1.6 × 10^−9 M, and 3.2 × 10^−10 M) or to the to the S. typhimurium-infected macrophages in a dilution series starting at 1e−4 M, with 1:3 dilutions followed by 1:10 dilutions for 6 points (1.0 × 10^−4 M, 3.0 × 10^−5 M, 1.0 × 10^−5 M, 1.0 × 10^−6 M, 1.0 × 10^−7 M, and 1.0 × 10^−8 M). The compounds were added in media containing 50 µg/ml gentamicin to prevent extracellular growth of bacteria. After 2 h, plates were washed twice with warm RPMI without FBS, and 100 μl of THP-1 lysis buffer (0.1% Triton in PBS) was added to each well. Bacterial survival was enumerated by colony forming units (cfu) through serial dilution and plating onto tryptic soy agar (TSA, Teknova) plates.

[16] = tested on: Salmonella typhimurium ATCC 14028; assay: as above; type: cell-based; conditions: Salmonella typhimurium ATCC 14028 in THP-1 macrophages, top conc. 1e−4 M
Description: as §2

S. aureus NRS384 = assay: S. aureus intracellular killing assay in THP-1 macrophages; type: cell-based; conditions: S. aureus NRS384 in THP-1 macrophages, 2 h, top conc. 1e−6 M
Description: as §2

T1 sequence (P08183 whole entry): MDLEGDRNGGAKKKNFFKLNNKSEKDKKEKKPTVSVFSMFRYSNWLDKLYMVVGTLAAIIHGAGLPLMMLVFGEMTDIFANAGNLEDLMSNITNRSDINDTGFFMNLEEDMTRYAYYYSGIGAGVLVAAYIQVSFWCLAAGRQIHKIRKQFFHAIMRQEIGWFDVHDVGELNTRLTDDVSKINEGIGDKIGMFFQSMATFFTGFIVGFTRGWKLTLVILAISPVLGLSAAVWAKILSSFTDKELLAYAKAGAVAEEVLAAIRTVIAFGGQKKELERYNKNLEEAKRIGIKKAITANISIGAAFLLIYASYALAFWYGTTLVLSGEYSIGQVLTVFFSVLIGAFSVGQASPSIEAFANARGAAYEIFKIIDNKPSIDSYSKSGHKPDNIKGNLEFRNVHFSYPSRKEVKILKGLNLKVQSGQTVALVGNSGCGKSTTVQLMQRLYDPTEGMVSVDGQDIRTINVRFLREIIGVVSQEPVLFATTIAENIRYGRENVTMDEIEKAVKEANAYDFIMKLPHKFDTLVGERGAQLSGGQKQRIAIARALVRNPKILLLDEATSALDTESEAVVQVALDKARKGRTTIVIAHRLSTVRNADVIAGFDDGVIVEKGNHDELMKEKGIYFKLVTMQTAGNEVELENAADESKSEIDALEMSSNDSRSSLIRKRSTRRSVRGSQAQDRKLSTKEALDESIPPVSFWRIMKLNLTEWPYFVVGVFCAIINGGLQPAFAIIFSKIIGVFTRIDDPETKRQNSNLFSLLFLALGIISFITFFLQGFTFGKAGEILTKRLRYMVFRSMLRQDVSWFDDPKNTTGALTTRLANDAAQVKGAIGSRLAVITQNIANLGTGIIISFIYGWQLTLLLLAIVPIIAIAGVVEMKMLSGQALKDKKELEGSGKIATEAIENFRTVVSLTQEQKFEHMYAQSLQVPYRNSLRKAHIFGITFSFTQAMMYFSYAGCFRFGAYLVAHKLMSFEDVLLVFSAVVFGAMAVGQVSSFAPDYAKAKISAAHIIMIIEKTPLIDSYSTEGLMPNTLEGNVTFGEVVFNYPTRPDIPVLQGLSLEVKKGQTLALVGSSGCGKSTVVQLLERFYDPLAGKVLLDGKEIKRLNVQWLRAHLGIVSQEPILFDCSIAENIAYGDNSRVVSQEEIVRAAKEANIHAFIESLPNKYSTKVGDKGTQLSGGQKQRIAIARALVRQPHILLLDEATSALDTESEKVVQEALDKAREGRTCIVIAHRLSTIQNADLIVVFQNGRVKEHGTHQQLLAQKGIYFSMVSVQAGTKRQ
Sequence of CYP 3A4 (Homo sapiens, UniProt P08684) (P08684 whole entry): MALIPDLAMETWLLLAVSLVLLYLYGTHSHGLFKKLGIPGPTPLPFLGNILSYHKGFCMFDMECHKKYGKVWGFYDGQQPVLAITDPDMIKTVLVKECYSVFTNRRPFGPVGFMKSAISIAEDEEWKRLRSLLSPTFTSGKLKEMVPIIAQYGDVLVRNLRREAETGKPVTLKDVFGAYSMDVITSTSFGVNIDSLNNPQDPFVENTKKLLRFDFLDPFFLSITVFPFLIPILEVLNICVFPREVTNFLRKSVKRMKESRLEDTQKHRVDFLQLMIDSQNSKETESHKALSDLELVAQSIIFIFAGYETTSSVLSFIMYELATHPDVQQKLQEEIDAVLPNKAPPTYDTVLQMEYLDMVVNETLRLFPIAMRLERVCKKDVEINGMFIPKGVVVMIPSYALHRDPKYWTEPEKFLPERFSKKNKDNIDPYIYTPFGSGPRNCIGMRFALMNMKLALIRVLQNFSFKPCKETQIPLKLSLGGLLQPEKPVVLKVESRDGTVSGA
Sequence of CYP 2C19 (P33261 whole entry): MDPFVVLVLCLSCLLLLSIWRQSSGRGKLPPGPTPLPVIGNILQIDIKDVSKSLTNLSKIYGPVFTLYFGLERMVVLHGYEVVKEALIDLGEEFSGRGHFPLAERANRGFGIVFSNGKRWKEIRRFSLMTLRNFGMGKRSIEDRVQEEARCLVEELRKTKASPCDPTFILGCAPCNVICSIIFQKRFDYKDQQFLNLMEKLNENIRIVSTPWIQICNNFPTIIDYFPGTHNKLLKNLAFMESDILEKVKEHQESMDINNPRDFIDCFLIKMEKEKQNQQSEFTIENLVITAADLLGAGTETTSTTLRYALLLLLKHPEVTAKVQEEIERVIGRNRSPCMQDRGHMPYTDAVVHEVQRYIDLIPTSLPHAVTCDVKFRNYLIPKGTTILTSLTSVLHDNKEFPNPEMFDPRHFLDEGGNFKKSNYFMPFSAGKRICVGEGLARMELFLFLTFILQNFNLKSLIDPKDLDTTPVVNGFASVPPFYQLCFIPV
Sequence of CYP 2B6 (P20813 whole entry): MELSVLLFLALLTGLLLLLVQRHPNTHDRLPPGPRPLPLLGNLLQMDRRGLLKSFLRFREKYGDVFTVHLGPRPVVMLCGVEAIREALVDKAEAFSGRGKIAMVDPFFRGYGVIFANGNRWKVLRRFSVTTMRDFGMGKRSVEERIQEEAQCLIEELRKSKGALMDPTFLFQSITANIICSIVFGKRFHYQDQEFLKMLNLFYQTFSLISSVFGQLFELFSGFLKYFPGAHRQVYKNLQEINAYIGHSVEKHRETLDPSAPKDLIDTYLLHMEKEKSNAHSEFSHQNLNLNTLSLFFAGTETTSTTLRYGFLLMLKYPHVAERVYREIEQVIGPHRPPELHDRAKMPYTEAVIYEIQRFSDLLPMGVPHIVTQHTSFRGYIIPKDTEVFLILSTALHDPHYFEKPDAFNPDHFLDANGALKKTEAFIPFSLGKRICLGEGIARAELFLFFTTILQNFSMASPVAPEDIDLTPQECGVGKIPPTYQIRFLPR
Sequence of CYP 1A2 (P05177 whole entry): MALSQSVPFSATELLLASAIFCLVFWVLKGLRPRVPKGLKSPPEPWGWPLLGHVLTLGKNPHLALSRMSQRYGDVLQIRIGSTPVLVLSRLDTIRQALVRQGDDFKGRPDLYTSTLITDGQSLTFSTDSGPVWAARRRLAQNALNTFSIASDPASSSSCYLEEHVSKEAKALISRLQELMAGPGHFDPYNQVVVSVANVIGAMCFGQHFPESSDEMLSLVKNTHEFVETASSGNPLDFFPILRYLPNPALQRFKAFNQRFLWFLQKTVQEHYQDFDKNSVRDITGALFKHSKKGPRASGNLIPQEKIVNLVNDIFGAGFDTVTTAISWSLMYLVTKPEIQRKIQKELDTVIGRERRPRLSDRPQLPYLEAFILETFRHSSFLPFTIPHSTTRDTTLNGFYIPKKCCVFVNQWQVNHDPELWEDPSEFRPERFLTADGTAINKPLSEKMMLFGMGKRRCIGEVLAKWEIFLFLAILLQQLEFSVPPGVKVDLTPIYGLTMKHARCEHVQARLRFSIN
Sequence of CYP 2D6 (P10635 whole entry): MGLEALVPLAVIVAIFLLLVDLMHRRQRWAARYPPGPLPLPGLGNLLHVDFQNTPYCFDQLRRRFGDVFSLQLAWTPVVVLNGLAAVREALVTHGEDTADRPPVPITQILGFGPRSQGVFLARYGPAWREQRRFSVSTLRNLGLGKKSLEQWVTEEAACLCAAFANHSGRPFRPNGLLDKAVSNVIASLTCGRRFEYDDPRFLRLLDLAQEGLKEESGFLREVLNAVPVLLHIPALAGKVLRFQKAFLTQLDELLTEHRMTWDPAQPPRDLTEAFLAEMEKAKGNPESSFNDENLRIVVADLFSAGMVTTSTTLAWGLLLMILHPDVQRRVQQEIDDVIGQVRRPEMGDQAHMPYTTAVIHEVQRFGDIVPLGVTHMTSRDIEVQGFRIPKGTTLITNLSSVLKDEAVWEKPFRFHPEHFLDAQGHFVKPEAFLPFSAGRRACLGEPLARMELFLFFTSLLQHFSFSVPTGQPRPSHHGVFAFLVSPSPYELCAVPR

COC1C=COC2(C)Oc3c(C)c(O)c4c(=O)c(c5oc6cc(OCCN(C)C)ccc6nc-5c4c3C2=O)NC(=O)C(C)=CC=CC(C)C(O)C(C)C(O)C(C)C(OC(C)=O)C1C (centres unmarked) [Compound 4]
IC50 (CYP 3A4 [1]; CYP 3A4, substrate Midazolam): 8.05 µM | IC50 (CYP 3A4 [1]; CYP 3A4, substrate Testosterone): 5.66 µM | IC50 (CYP 1A2): 10.9 µM | Mean A-B % Recovery [2]: 89.10% | Mean B-A % Recovery [2]: 54.80% | Mean Papp A-B [2]: 1.38 10^−6 cm/s | Mean Papp B-A [2]: 18.9 10^−6 cm/s | Average % Stability [3]: 75.8% | T1/2 [4]: >2 h | T1/2 [5]: >2 h | half-lives, rodent S9 microsomal stability [6]: greater than 120 min | Mean (B-A/A-B) Efflux Ratio [7]: 13.7 | IC50 (CYP 2D6): 11.7 µM | Mean A-B % Recovery [8]: 52.70% | Mean B-A % Recovery [8]: 66.30% | Mean Papp A-B [8]: 2.59 10^−6 cm/s | Mean Papp B-A [8]: 10.3 10^−6 cm/s | Fold Induction (Enzyme Activity) (CYP 3A4 [9]): 0.128 | IC50 (CYP 2B6): 11.6 µM | Mean (B-A/A-B) Efflux Ratio [10]: 3.97 | Broth MIC [11]: 1 µM | bacterial load (kidney) ([12]; 0.01 mg/kg in combination with vancomycin): below the limit of detection | S. aureus kidney burden ([12]; 0.01–0.75 mg/kg in combination with vancomycin): to or near the limit of detection | S. aureus kidney burden [13]: further reduced kidney burden | Broth MIC [14]: 4 µM | IC50 (CYP 2C19): 9.99 µM | Intracellular MIC [15]: 30 µM | Intracellular MIC [16]: 100 µM | Intracellular MIC (S. aureus NRS384): 0.04 µM
